# Laboratory results: patent US20120101083A1, “S1P1 AGONISTS COMPRISING A BICYCLIC N-CONTAINING RING” (GLAXO GROUP LIMITED, priority 2009, published 2012)
# pEC50: −log10 of the molar value. Where a name gives a salt, the structure may show the parent alone.
# Target: T1, S1P1 receptor (S1P1 expressing RH7777 membranes) (Homo sapiens, UniProt P21453)
# T1 construct: expressed in transfected cells; host or cells: RH7777 cells (membranes)
# Test: S1P1 GTPγS assay
# Type: biochemical
# Settings: tested in one of the above S1P1 assays (two GTPγS formats)
# Protocol: The potencies and efficacies of the compounds of this invention for the S1P1 receptor can be determined by GTPγS assay performed on the human cloned receptor as described herein.
# Membrane preparation for S1P1 GTPγS assay
# All steps were performed at 4° C. Cells were homogenised within a glass Waring blender for 2 bursts of 15 secs in 200 mls of buffer (50 mM HEPES, 1 mM leupeptin, 25 μg/ml bacitracin, 1 mM EDTA, 1 mM PMSF, 2 μM pepstatin A). The blender was plunged into ice for 5 mins after the first burst and 10-40 mins after the final burst to allow foam to dissipate. The material was then spun at 500 g for 20 mins and the supernatant spun for 36 mins at 48,000 g. The pellet was resuspended in the same buffer as above but without PMSF and pepstatin A. The material was then forced through a 0.6 mm needle, made up to the required volume, (usually x4 the volume of the original cell pellet), aliquoted and stored frozen at −80° C.
# S1P1 expressing RH7777 membranes (1.5 μg/well) membranes (1.5 μg/well) were homogenised by passing through a 23 G needle. These were then adhered to WGA-coated SPA beads (0.125 mg/well) in assay buffer (HEPES 20 mM, MgCl2 10 mM, NaCl 100 mM and pH adjusted to 7.4 using KOH 5M). GDP 10 μM FAC and saponin 90 μg/ml FAC were also added
# After 30 minutes precoupling on ice, the bead and membrane suspension was dispensed into white Greiner polypropylene LV 384-well plates (5 μl/well), containing […] of compound. 5 μl/well [^35S]-GTPγS (0.5 nM for S1P1 or 0.3 nM for S1P3 final radioligand concentration) made in assay buffer was then added to the plates. The final assay cocktail (10.1 μl) was then sealed, spun on a centrifuge, then read immediately on a Viewlux instrument.
# Alternatively, after 30 minutes precoupling on ice, the bead and membrane suspension was mixed with ^35S]-GTPγS (0.5 nM final radioligand concentration) in assay buffer (HEPES 20 mM, MgCl2 10 mM, NaCl 100 mM and pH adjusted to 7.4 using KOH 5M) in a 1:1 ratio. The bead, membrane and radioligand suspension was dispensed into white Greiner polypropylene low volume 384-well plates (10 μl/well), containing 0.1 μl of a solution of test compound in 100% DMSO. The final assay cocktail (10.1 μl) was then sealed, spun on a centrifuge, then read immediately on a Viewlux instrument.
# T1 sequence (P21453 whole entry): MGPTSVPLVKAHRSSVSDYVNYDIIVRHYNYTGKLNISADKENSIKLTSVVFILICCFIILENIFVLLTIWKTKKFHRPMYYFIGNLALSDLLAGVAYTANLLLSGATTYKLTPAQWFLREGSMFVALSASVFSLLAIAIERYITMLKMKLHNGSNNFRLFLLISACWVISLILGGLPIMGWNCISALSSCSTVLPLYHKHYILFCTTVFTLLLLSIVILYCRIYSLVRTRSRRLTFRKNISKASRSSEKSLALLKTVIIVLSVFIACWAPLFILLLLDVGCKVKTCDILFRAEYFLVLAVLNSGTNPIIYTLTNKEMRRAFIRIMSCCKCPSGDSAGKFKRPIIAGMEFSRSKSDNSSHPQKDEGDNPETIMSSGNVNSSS
row,pEC50,SMILES
1,≥ 6.00,"CC(C)Oc1ccc(-c2nnc(-c3cccc4c3CCN(CCO)C4)s2)cc1C#N [Example 38, 5-{5-[2-(2-hydroxyethyl)-1,2,3,4-tetrahydro-5-isoquinolinyl]-1,3,4-thiadiazol-2-yl}-2-[(1-methylethyl)oxy]benzonitrile]"
2,≥ 6.00,"CC(C)Oc1ccc(-c2nc(-c3ccc4c(c3)CCN(C(=O)[C@](C)(N)CO)CC4)no2)cc1C#N [Example 84, 2-[(1-methylethyl)oxy]-5-{3-[3-(2-methyl-D-seryl)-2,3,4,5-tetrahydro-1H-3-benzazepin-7-yl]-1,2,4-oxadiazol-5-yl}benzonitrile]"
3,≥ 7.00,"CC(C)Oc1ccc(-c2nc(-c3ccc4c(c3)CCN(C(=O)[C@@H](N)[C@@H](C)O)CC4)no2)cc1C#N [Example 59, 2-[(1-methylethyl)oxy]-5-[3-(3-L-threonyl-2,3,4,5-tetrahydro-1H-3-benzazepin-7-yl)-1,2,4-oxadiazol-5-yl]benzonitrile]"
4,≥ 6.00,"COCCN1CCc2c(ccc(-c3nnc(-c4ccc(OC(C)C)c(C#N)c4)s3)c2C)C1 [Example 17, 2-[(1-Methylethyl)oxy]-5-(5-{5-methyl-2-[2-(methyloxy)ethyl]-1,2,3,4-tetrahydro-6-isoquinolinyl}-1,3,4-thiadiazol-2-yl)benzonitrile hydrochloride]"
5,≥ 6.00,"CNCCCC(=O)N1CCc2ccc(-c3noc(-c4ccc(OC(C)C)c(C#N)c4)n3)cc2CC1 [Example 83, 5-(3-{3-[4-(methylamino)butanoyl]-2,3,4,5-tetrahydro-1H-3-benzazepin-7-yl}-1,2,4-oxadiazol-5-yl)-2-[(1-methylethyl)oxy]benzonitrile]"
6,≥ 6.00,"CC(C)Oc1ccc(-c2nnc(-c3cccc4c3CCN(CCC(=O)N(C)C)C4)s2)cc1C#N [Example 46, 3-[5-(5-{3-cyano-4-[(1-methylethyl)oxy]phenyl}-1,3,4-thiadiazol-2-yl)-3,4-dihydro-2(1H)-isoquinolinyl]-N,N-dimethylpropanamide]"
7,< 5.00,"CNC(=O)CCN1CCc2c(cccc2-c2nnc(-c3ccc(OC(C)C)c(C#N)c3)s2)C1 [Example 45, 3-[5-(5-{3-cyano-4-[(1-methylethyl)oxy]phenyl}-1,3,4-thiadiazol-2-yl)-3,4-dihydro-2(1H)-isoquinolinyl]-N-methylpropanamide]"
8,≥ 6.00,"CCOc1ncc(-c2nc(-c3ccc4c(c3)CCN(C(=O)CN)CC4)no2)cc1C#N [Example 113, 2-(ethyloxy)-5-[3-(3-glycyl-2,3,4,5-tetrahydro-1H-3-benzazepin-7-yl)-1,2,4-oxadiazol-5-yl]-3-pyridinecarbonitrile]"
9,≥ 6.00,"N#Cc1cc(-c2nc(-c3ccc4c(c3)CCN(C(=O)CN)CC4)no2)ccc1N1CC(F)C1 [Example 94, 2-(3-fluoro-1-azetidinyl)-5-[3-(3-glycyl-2,3,4,5-tetrahydro-1H-3-benzazepin-7-yl)-1,2,4-oxadiazol-5-yl]benzonitrile]"
10,≥ 6.00,"CC(C)Oc1ccc(-c2nc(-c3cccc4c3CCN(CC(N)=O)CC4)no2)cc1C#N [Example 31, 2-[6-(5-{3-Cyano-4-[(1-methylethyl)oxy]phenyl}-1,2,4-oxadiazol-3-yl)-1,2,4,5-tetrahydro-3H-3-benzazepin-3-yl]acetamide]"
11,≥ 6.00,"CC(C)Oc1ccc(-c2nnc(-c3ccc4c(c3)CCN(CCCO)CC4)s2)cc1C#N [Example 29, 5-{5-[3-(3-Hydroxypropyl)-2,3,4,5-tetrahydro-1H-3-benzazepin-7-yl]-1,3,4-thiadiazol-2-yl}-2-[(1-methylethyl)oxy]benzonitrile]"
12,≥ 7.00,"CCOc1ccc(-c2nc(-c3ccc4c(c3)CCN(C(=O)CN)CC4)no2)cc1C#N [Example 61, 2-(ethyloxy)-5-[3-(3-glycyl-2,3,4,5-tetrahydro-1H-3-benzazepin-7-yl)-1,2,4-oxadiazol-5-yl]benzonitrile]"
13,≥ 8.00,"CC(C)Oc1ccc(-c2nc(-c3ccc4c(c3)CCN(C(=O)CN[C@H](C)CO)CC4)no2)cc1C#N [Example 98, 5-[3-(3-{N-(1R)-2-hydroxy-1-methylethyl]glycyl}-2,3,4,5-tetrahydro-1H-3-benzazepin-7-yl)-1,2,4-oxadiazol-5-yl]-2-[(1-methylethyl)oxy]benzonitrile hydrochloride]"
14,≥ 6.00,"CC(C)Oc1ccc(-c2nc(-c3ccc4c(c3)CCN(C(=O)CN3CCOCC3)CC4)no2)cc1C#N [Example 91, 2-[(1-methylethyl)oxy]-5-{3-[3-(4-morpholinylacetyl)-2,3,4,5-tetrahydro-1H-3-benzazepin-7-yl]-1,2,4-oxadiazol-5-yl}benzonitrile hydrochloride]"
15,≥ 6.00,"CCCOc1ncc(-c2nc(-c3ccc4c(c3)CCN(C[C@H](O)CO)CC4)no2)cc1C#N [Example 115, 5-(3-{3-[(2S)-2,3-dihydroxypropyl]-2,3,4,5-tetrahydro-1H-3-benzazepin-7-yl}-1,2,4-oxadiazol-5-yl)-2-(propyloxy)-3-pyridinecarbonitrile]"
16,≥ 6.00,"N#Cc1cc(-c2nc(-c3ccc4c(c3)CCN(CC(O)CO)CC4)no2)ccc1N1CCC(F)C1 (stereo not shown) [Example 55, 5-{3-[3-(2,3-dihydroxypropyl)-2,3,4,5-tetrahydro-1H-3-benzazepin-7-yl]-1,2,4-oxadiazol-5-yl}-2-(3-fluoro-1-pyrrolidinyl)benzonitrile]"
17,≥ 6.00,"CCCNc1ncc(-c2nc(-c3ccc4c(c3)CCN(C(CO)CO)CC4)no2)cc1C#N [Example 150, 5-(3-{3-[2-hydroxy-1-(hydroxymethyl)ethyl]-2,3,4,5-tetrahydro-1H-3-benzazepin-7-yl}-1,2,4-oxadiazol-5-yl)-2-(propylamino)-3-pyridinecarbonitrile dihydrochloride]"
18,≥ 7.00,"Cc1c(-c2noc(-c3ccc(OC(C)C)c(C#N)c3)n2)ccc2c1CCN(C(CO)CO)C2 [Example 66, 5-(3-{2-[2-hydroxy-1-(hydroxymethyl)ethyl]-5-methyl-1,2,3,4-tetrahydro-6-isoquinolinyl}-1,2,4-oxadiazol-5-yl)-2-[(1-methylethyl)oxy]benzonitrile hydrochloride]"
19,≥ 6.00,"CCCNc1ncc(-c2nc(-c3ccc4c(c3C)CCN(C[C@H](O)CO)CC4)no2)cc1C#N [Example 145, 5-(3-{34[(2S)-2,3-dihydroxypropyl]-6-methyl-2,3,4,5-tetrahydro-1H-3-benzazepin-7-yl}-1,2,4-oxadiazol-5-yl)-2-(propylamino)-3-pyridinecarbonitrile]"
20,≥ 8.00,"CC(=O)NCCN1CCc2ccc(-c3noc(-c4ccc(OC(C)C)c(C#N)c4)n3)cc2CC1 [Example 101, N-{2-[7-(5-{3-cyano-4-[(1-methylethyl)oxy]phenyl}-1,2,4-oxadiazol-3-yl)-1,2,4,5-tetrahydro-3H-3-benzazepin-3-yl]ethyl}acetamide]"
21,≥ 6.00,"COC(=O)NCCCN1CCc2ccc(-c3noc(-c4ccc(OC(C)C)c(C#N)c4)n3)cc2CC1 [Example 102, methyl {3-[7-(5-{3-cyano-4-[(1-methylethyl)oxy]phenyl}-1,2,4-oxadiazol-3-yl)-1,2,4,5-tetrahydro-3H-3-benzazepin-3-yl]propyl}carbamate]"
22,≥ 7.00,"CCCNc1ccc(-c2nc(-c3ccc4c(c3)CCN(C(=O)CN)CC4)no2)cc1C#N [Example 53, 5-[3-(3-glycyl-2,3,4,5-tetrahydro-1H-3-benzazepin-7-yl)-1,2,4-oxadiazol-5-yl]-2-(propylamino)benzonitrile]"
23,≥ 7.00,"Cc1c(-c2noc(-c3ccc(OC(C)C)c(C#N)c3)n2)ccc2c1CCN(C(=O)CN)CC2 [Example 140, 5-[3-(3-glycyl-6-methyl-2,3,4,5-tetrahydro-1H-3-benzazepin-7-yl)-1,2,4-oxadiazol-5-yl]-2-[(1-methylethyl)oxy]benzonitrile hydrochloride]"
24,≥ 8.00,"CC(C)Oc1ncc(-c2nc(-c3ccc4c(c3)CCN(C(CO)CO)CC4)no2)cc1C#N [Example 95, 5-(3-{3-[2-hydroxy-1-(hydroxymethyl)ethyl]-2,3,4,5-tetrahydro-1H-3-benzazepin-7-yl}-1,2,4-oxadiazol-5-yl)-2-[(1-methylethyl)oxy]-3-pyridinecarbonitrile]"
25,≥ 8.00,"Cc1c(-c2noc(-c3ccc(OC(C)C)c(C#N)c3)n2)ccc2c1CCN(CC(=O)NC[C@H](C)O)C2 [Example 121, 2-[6-(5-{3-cyano-4-[(1-methylethyl)oxy]phenyl}-1,2,4-oxadiazol-3-yl)-5-methyl-3,4-dihydro-2(1H)-isoquinolinyl]-N-[(2S)-2-hydroxypropyl]acetamide hydrochloride]"
